According to patent US20080312287A1, “Compound and Methods For the Treatment of Cancer and Malaria” (University of Washington, priority 2005, published 2008):

Legend:
[1] = Liver microsome metabolism (mouse); conditions: female, microsomes
Procedure: (§2) Microsome metabolism. Liver microsome metabolism assays were performed with female pooled microsomes from BD Biosciences (20 mg/mL). Reaction wells containing: phosphate buffer (232 μL, 0.6 M), MgCl2 (12.0 μL, 0.1 M), EDTA (0.8 μL, 0.5 M), 10x NADPH regenerating system (40.0 μL), Glucoide-6-phosphate deghydrogenase (0.8 μL, 500 U/mL), milliq water (267.8 μL), and liver microsomes (10.0 μL, 20 mg/mL) were heated at 37° C. for 10 mins. To each reaction well was added inhibitor (200 μM, 2.0 μL) in DMSO. Reaction vessels were quenched with acetonitrile (75 μL) and internal standard at designated time points, and the sample immediately frozen (−20° C.). Metabolites and unreacted inhibitor were quantified by mass spectral analysis.

[2] = Liver microsome metabolism (rat); conditions: female, microsomes
Procedure: as §2

[3] = target: T1, PfPFT (Plasmodium falciparum, UniProt Q8I503+Q8IHP6); experiment: PfPFT inhibition, scintillation proximity assay with partially purified PfPFT; assay type: biochemical
T1 sequence (Q8I503 1-521): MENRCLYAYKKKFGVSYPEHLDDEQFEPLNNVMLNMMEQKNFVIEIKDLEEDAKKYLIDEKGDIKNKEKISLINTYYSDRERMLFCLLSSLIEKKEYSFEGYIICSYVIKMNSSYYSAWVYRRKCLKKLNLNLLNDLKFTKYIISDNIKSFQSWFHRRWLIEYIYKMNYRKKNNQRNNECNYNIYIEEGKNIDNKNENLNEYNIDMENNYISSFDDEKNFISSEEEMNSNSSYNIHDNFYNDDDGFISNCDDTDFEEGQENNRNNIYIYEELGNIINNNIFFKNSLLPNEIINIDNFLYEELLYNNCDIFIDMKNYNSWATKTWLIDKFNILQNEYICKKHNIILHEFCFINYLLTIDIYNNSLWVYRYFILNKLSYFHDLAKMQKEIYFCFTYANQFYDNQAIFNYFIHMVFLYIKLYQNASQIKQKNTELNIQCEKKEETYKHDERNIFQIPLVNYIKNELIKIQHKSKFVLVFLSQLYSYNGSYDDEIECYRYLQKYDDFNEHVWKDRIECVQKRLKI
T1 sequence (Q8IHP6 1-923): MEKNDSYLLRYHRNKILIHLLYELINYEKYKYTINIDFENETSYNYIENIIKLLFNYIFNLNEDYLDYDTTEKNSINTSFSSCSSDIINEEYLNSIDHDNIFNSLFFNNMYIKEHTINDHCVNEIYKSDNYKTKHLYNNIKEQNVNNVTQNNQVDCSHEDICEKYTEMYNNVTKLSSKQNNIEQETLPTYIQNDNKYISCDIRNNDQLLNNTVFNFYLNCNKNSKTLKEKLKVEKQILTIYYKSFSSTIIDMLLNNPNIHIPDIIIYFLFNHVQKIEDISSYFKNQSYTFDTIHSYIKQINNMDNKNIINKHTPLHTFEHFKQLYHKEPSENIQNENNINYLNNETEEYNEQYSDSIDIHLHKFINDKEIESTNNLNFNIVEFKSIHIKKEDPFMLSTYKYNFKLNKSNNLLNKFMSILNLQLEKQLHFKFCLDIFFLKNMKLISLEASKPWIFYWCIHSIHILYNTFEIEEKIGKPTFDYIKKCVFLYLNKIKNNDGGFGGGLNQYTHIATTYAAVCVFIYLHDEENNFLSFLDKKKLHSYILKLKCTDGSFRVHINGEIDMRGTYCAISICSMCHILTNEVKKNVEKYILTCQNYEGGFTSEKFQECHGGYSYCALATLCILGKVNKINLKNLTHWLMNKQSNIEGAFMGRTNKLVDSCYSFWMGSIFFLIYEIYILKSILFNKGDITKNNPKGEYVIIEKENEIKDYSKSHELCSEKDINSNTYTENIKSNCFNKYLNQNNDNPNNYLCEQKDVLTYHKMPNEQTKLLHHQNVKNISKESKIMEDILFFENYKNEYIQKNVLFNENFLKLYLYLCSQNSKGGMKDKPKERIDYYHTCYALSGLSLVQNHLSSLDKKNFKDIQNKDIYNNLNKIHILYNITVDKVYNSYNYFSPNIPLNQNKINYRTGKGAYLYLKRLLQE

[4] = test system: Caco-2 cells; experiment: Caco-2 apparent permeability; conditions: apparent permeability coefficient
Text: Absorption. Caco-2 cells cultured on a semi-permeable membrane form a highly functionalized epithelial barrier, with remarkable similarity to small intestinal epithelial cells, including high levels of brush border hydrolases and well developed junctional complexes.

[5] = target: Rat FTase (Rattus norvegicus, UniProt Q02293+Q04631); experiment: Rat farnesyltransferase IC50 determination; assay type: biochemical; conditions: concentration decreasing transferase activity twofold
[6] = test system: P. falciparum K1; experiment: P. falciparum ED50 determination, [3H]-hypoxanthine incorporation, strain K1; assay type: cell-based, Plasmodium falciparum; conditions: Plasmodium falciparum, K1, strain K1; concentration decreasing hypoxanthine incorporation into parasites twofold; read-out: ED50 K1
How it was run: (§1)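 Cultures at 0.5% parasitemia and 0.5% hematocrit, in RPMI with 20% human A+ plasma, were exposed to compound for 48 h at 37° C under 5% CO2/5% O2. [3H]-hypoxanthine was then added for 24 h more. Incorporation, corrected for uninfected erythrocytes and normalised to DMSO wells, gave ED50 by linear regression.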

[7] = test system: P. falciparum 3D7; experiment: P. falciparum ED50 determination, [3H]-hypoxanthine incorporation, strain 3D7; assay type: cell-based, Plasmodium falciparum; conditions: Plasmodium falciparum, 3D7, strain 3D7; concentration decreasing hypoxanthine incorporation into parasites twofold; read-out: ED50 3D7
How it was run: as §1

Cn1cnc(S(=O)(=O)N(CCN(Cc2cncn2C)c2ccc(C#N)cc2)CC2CCCCC2)c1 [Compound 8q, 1-Methyl-1H-imidazole-4-sulfonic acid {2-[(4-cyano-phenyl)-(3-methyl-3H-imidazol-4-ylmethyl)-amino]-ethyl}-cyclohexylmethyl-amide]
half-life at 0.71 µM [1]: < 5 min | half-life at 0.71 µM [2]: 4 min | Selectivity ([3]; ratio of rat to Plasmodium PFT activity): 1.7 | inhibition at 0.005 µM ([3]; read-out: % Inhibition of PfPFT at 5 nM, inhibitor at 5 nM): 63% | inhibition at 0.05 µM ([3]; read-out: % Inhibition of PfPFT at 50 nM, inhibitor at 50 nM): 93% | CaCo [4]: 1.5 cm · s^−1 × 10^−6 | IC50 [5]: 7.5 nM | EC50 [6]: 850 nM | EC50 [7]: 220 nM
